Data: patent US10898580B2, “Isoquinolidinobenzodiazepines” (priority 2015, dated 2021)
Values after ≈ are worked out from the molar mass of the structure shown.

Tests used:
HEL92.1.7 = assay: Growth inhibition by payloads, CellTiter-Glo cell viability; type: cell-based; conditions: Homo sapiens, HEL 92.1.7, MDR +
Description: (§1) The cytotoxicity of the compounds was evaluated using the CellTiter-Glo Luminescent Cell Viability Assay (Promega Cat # G7573) as described in the manufacturer's instructions (Arduengo, M., Cell Notes, 2003, 5:15-17). This assay contains a reagent that lyses cells and generates a “glow-type” luminescent signal proportional to the amount of adenosine triphosphate (ATP) present, which is a measure of cell growth.
(§2) Cells were seeded at 1000 cells per well in 50 μL of culture media into tissue culture 96-well flat-bottom plates. The perimeter wells of the plate were not used and 200 μL of media was added to the perimeter wells to prevent evaporation during incubation. 50 μL of the compound tested at twice the final concentration were then added to the wells in triplicate. Plates were incubated at 37° C., 5% CO2 for 72 hours before adding 100 μL CellTiter-Glo reagent to each well (excluding perimeter wells). Plates were then incubated at room temperature on a shaker for 10 minutes. After incubation, 100 μL of the supernatants were transferred to a solid white 96-well plate and luminescence was measured with a spectrophotometer. Percent viability was calculated based on untreated control: % viability=(treated/untreated)*100.
(§3) GI50: Concentration of compound required for 50% cell growth inhibition.
(§4) The cytotoxic activity of compounds CLT-D201, CLT-D501, CLT-D601 was tested against various cell lines in comparison with a pyrrolobenzodiazepine dimer labeled as PBD1 (structurally identical to SGD-1882, Spirogen Ltd.), having a formula: […]

HL-60 = assay: as above; type: cell-based; conditions: Homo sapiens, MDR −
Description: as §1, §2, §3, §4

HNT-34 = assay: as above; type: cell-based; conditions: MDR +/−
Description: as §1, §2, §3, §4

KG1 = assay: as above; type: cell-based; conditions: Homo sapiens, KG-1, MDR +
Description: as §1, §2, §3, §4

OCI-AML5 = assay: as above; type: cell-based; conditions: Homo sapiens, OCI-AML-5, MDR NA
Description: as §1, §2, §3, §4

SHI = assay: as above; type: cell-based; conditions: MDR −
Description: as §1, §2, §3, §4

TF-1 = assay: as above; type: cell-based; conditions: Homo sapiens, MDR +
Description: as §1, §2, §3, §4

THP-1 = assay: as above; type: cell-based; conditions: Homo sapiens, MDR −
Description: as §1, §2, §3, §4

HL60 tumor cells = assay: Orthotopic HL60 AML xenograft model; type: in vivo, NOD/SCID mice; conditions: 1 mg/kg, day 23 after inoculation
Description: Orthotopically engrafted HL60 tumor-bearing mice were treated with unconjugated C0 (1 mg/Kg) antibody and control ADC (3 mg/Kg) as compared with mice treated with C6-CLT-D202-ADC (3 mg/Kg). The percentage of human HL60 tumor cells in the bone marrow (left panel) and in the peripheral blood (right panel) is shown, the median bar and interquartile error bars are denoted for N=4-6 mice. The table (bottom) indicates the median, minimum, maximum, and interquartile percentage of human HL60 cells in the bone marrow and peripheral blood of treated mice.
Female 6-8 week-old NOD/SCID mice were sub-lethally irradiated with 2.5 Gy, and 5 million HL60 tumors were injected intravenously at one day post-irradiation into the mice. Following 6 days of tumor cell inoculation (˜0.1-1% engraftment in the bone marrow), mice were dosed 3 times, and once per week (q7DX3) with 3 mg/Kg of C6-CLT-D202 ADC or with the same amount of control C0-ADC. Following 23 days of tumor cell inoculation, bone, spleen, and peripheral blood were collected from the treated mice and total hematopoietic cells were isolated. The percentage of human cells in these tissues was determined by flow cytometry using anti-human CD33 and CD45 antibodies. Data were analyzed by Flowjo software, and plotted with Prism software.
Greater than 90% Tumor Growth Inhibition (TGI) was observed after administration with C6-CLT-D202 ADC.

Row | Compound | IC50 (HEL92.1.7) [ng/mL] | IC50 (HL-60) [ng/mL] | IC50 (HNT-34) [ng/mL] | IC50 (KG1) [ng/mL] | IC50 (OCI-AML5) [ng/mL] | IC50 (SHI) [ng/mL] | IC50 (TF-1) [ng/mL] | IC50 (THP-1) [ng/mL] | percentage of human HL60 cells, 25% Percentile (HL60 tumor cells; Blood) [%] | percentage of human HL60 cells, 75% Percentile (HL60 tumor cells; Blood) [%] | percentage of human HL60 cells, Median (HL60 tumor cells; Blood) [%] | percentage of human HL60 cells, Minimum (HL60 tumor cells; Blood) [%] | percentage of human HL60 cells, 25% Percentile (HL60 tumor cells; Bone marrow) [%] | percentage of human HL60 cells, 75% Percentile (HL60 tumor cells; Bone marrow) [%] | percentage of human HL60 cells, Median (HL60 tumor cells; Bone marrow) [%] | percentage of human HL60 cells, Minimum (HL60 tumor cells; Bone marrow) [%]
1 | COc1ccc(C2=CN3C(=O)c4cc(OC)c(OCCCOc5cc6c(cc5OC)C(=O)N5C=C(c7ccc(N)cc7)C[C@@]5(C)C=N6)cc4N=C[C@]3(C)C2)cc1 [PBD1] | 0.00387 | 0.0028 (≈ 0.00371 nM) | 0.00149 (≈ 0.00198 nM) | 0.66 | 0.00208 (≈ 0.00276 nM) | 0.00547 (≈ 0.00725 nM) | 0.447 | 0.0126 (≈ 0.0167 nM) | – | – | – | – | – | – | – | –
2 | COc1cc2c(cc1OCCCOc1cc3c(cc1OC)C(=O)N1Cc4ccccc4CC1C=N3)N=CC1Cc3ccccc3CN1C2=O (stereo not drawn) [CLT-D201] | 0.0404 | 0.002 (≈ 0.00305 nM) | 0.014 (≈ 0.0213 nM) | 2.45 | 0.00823 (≈ 0.0125 nM) | 0.0211 (≈ 0.0321 nM) | 1.29 | 0.0291 (≈ 0.0443 nM) | – | – | – | – | – | – | – | –
3 | Palivizumab [C0] | – | – | – | – | – | – | – | – | 36.025 | 68.1 | 56.5 | 30.4 | 60.85 | 85.8 | 72.95 | 55.9
